Earlier results, collected in US5520931A (Gacell Laboratories AB, priority 1992, dated 1996).

Test system: cancer pain
Settings: severe pain, WHO programme

CN1CC[C@]23c4c5ccc(O)c4O[C@H]2[C@@H](O)C=C[C@H]3[C@H]1C5 [morphine]
efficacy and acceptability in advanced cancer pain: both efficacious and acceptable
